This is an account of results in article PMC5515859, “Metabolism of F18, a Derivative of Calanolide A, in Human Liver Microsomes and Cytosol” (Frontiers in Pharmacology, 2017).

For this test, the system named is carbonyl reductases in HLcy. The test is described as follows: Inhibition of carbonyl reduction of F18 (formation of M3-1 and M3-2) by chemical inhibitors in HLcy. The format is in vitro ADME, human. The note with it: F18 10 μM, 10 min. On the procedure:
F18 (10 μM) was incubated with HLMs (0.5 mg/mL) and the NADPH-generating system for 30 min or with HLcy and a cofactor (NADPH or NADH) for 10 min in the presence of chemical inhibitors under the above-described conditions. Control incubations using the vehicles but not the chemical inhibitors were also performed. The formation of M3-1 and M3-2 was quantified by LC-MS/MS.
The amounts of F18, M1, M2-9, M3-1, M3-2, M5-2, M5-3, M5-4, and M5-5 in the incubations were simultaneously quantified with the LC-MS/MS system. […] The sheath gas, auxiliary gas, spray voltage and tube lens parameters were the same as those for the metabolic profiling studies.

Setting [1] is: HLcy with NADH, high concentration: dicumarol 50 μM, 4-methylpyrazole 500 μM.
The mark [2] stands for this setting: HLcy with NADH, low concentration: dicumarol 10 μM, 4-methylpyrazole 100 μM.
Where [3] appears, read: HLcy with NADPH, high concentration: dicumarol 50 μM, 4-methylpyrazole 500 μM.
Where [4] appears, read: HLcy with NADPH, low concentration: dicumarol 10 μM, 4-methylpyrazole 100 μM.
Where [5] appears, read: HLcy, cofactor not given, high concentration 50 μM.
[6] abbreviates: HLcy, cofactor not given, low concentration 10 μM.

For `Cc1cn[nH]c1` [4-methylpyrazole], the “Percentage of inhibition of the formation of M3-1, H” value under setting [1] is given as “N.I” and the “Percentage of inhibition of the formation of M3-1, H” value under setting [3] was “N.I”. Also, the “Percentage of inhibition of the formation of M3-2, H” value runs as follows: under setting [1], “N.I”; under setting [3], “N.I”. The “Percentage of inhibition of the formation of M3-1, L” value under setting [2] is “N.I” and the “Percentage of inhibition of the formation of M3-1, L” value under setting [4] is listed as “N.I”. Moreover, the “Percentage of inhibition of the formation of M3-2, L” value under setting [2] is listed as “N.I” and the “Percentage of inhibition of the formation of M3-2, L” value under setting [4] is given as “N.I”.

For the compound medroxyprogesterone, under setting [5], the “Percentage of inhibition of the formation of M3-1, H” value was 24.9% and the “Percentage of inhibition of the formation of M3-2, H” value is 38.8%. In addition, under setting [6], the “Percentage of inhibition of the formation of M3-1, L” value is recorded as 24.3% and the “Percentage of inhibition of the formation of M3-2, L” value was 35.8%.

Take `CCC1(c2ccccc2)C(=O)NC(=O)NC1=O` [Phenobarbital, phenobarbital]: under setting [5], the “Percentage of inhibition of the formation of M3-1, H” value is listed as “N.I” and the “Percentage of inhibition of the formation of M3-2, H” value is “N.I”. Further, under setting [6], the “Percentage of inhibition of the formation of M3-1, L” value is “N.I” and the “Percentage of inhibition of the formation of M3-2, L” value is reported as “N.I”.

For `CC1=CC(=O)c2ccccc2C1=O` [Menadione, menadione], under setting [5], the “Percentage of inhibition of the formation of M3-1, H” value is on record as 45.9% and the “Percentage of inhibition of the formation of M3-2, H” value came out at 58.4%. Under setting [6], the “Percentage of inhibition of the formation of M3-1, L” value stood at 7.7% and the “Percentage of inhibition of the formation of M3-2, L” value is on record as 20.1%.

Take `O=C(O)c1ccccc1Nc1cccc(C(F)(F)F)c1` [Flufenamic acid, flufenamic acid]: under setting [5], the “Percentage of inhibition of the formation of M3-1, H” value stood at 87.9% and the “Percentage of inhibition of the formation of M3-2, H” value stood at 94.0%. Under setting [6], the “Percentage of inhibition of the formation of M3-1, L” value is listed as 82.4% and the “Percentage of inhibition of the formation of M3-2, L” value stood at 88.5%.

As to `O=c1oc2ccccc2c(O)c1Cc1c(O)c2ccccc2oc1=O` [Dicumarol, dicumarol], the “Percentage of inhibition of the formation of M3-1, H” value was 51.5% under setting [1] and 70.6% under setting [3]. Further, the “Percentage of inhibition of the formation of M3-2, H” value by setting is: under setting [1], 49.6%; under setting [3], 82.2%. Also, the “Percentage of inhibition of the formation of M3-1, L” value is, setting by setting: under setting [2], 16.0%; under setting [4], 52.3%. The “Percentage of inhibition of the formation of M3-2, L” value is, setting by setting: under setting [2], 6.7%; under setting [4], 67.7%.

Consider `C[C@H](CCC(=O)O)[C@H]1CC[C@H]2[C@@H]3[C@H](O)C[C@@H]4C[C@H](O)CC[C@]4(C)[C@H]3CC[C@]12C` [Chenodeoxycholic, chenodeoxycholic acid], for which, under setting [5], the “Percentage of inhibition of the formation of M3-1, H” value was found to be 69.3% and the “Percentage of inhibition of the formation of M3-2, H” value was determined as 81.2%. Also, under setting [6], the “Percentage of inhibition of the formation of M3-1, L” value is reported as 50.8% and the “Percentage of inhibition of the formation of M3-2, L” value came to 62.3%.
